According to patent publication US6914057B1, “Inhibitor of cataract formation” (The Research Foundation of State University of New York, priority 1998, dated 2005):

What was measured:
[1] = test system: Type II ZDF/GMI diabetic rats; experiment: Development of cataracts in Type II ZDF/GMI diabetic rats treated with tetracycline analogues; format: in vivo, rat; details: for percentage of Type II ZDF/GMI diabetic rats that developed cataracts: FIG. 1, treated diabetic rats, oral dose of 15 mg/kg
Description: Diabetics develop posterior subcapsular cataracts, characterized by a central opacity in the nucleus and cortex. […] In the current study, CMT-8 administration to the Type II diabetic rats reduced the incidence of cataract development by […] at five months. In fact, this therapeutic effect may have been underestimated since it was an unexpected finding and, therefore, was not documented at the earlier time points. The mechanisms by which Type II (and Type I) diabetes causes the development of these cataracts is not yet understood.
Specifically, approximately 60% of untreated Type II ZDF/GMI diabetic rats developed cataracts whereas approximately 42% of Type II ZDF/GMI diabetic rats treated with CMT-8 developed cataracts.
In particular, approximately 60% of Type II ZDF/GMI diabetic rats treated with doxycycline developed cataracts and approximately 70% of Type II ZDF/GMI diabetic rats treated with CMT-3 developed cataracts.
It is believed that the lack of efficacy for doxycycline and CMT-3 was due to the serum concentration achieved. […] The peak serum concentration for doxycycline was determined to be 0.9 μg/ml and the peak serum concentration for CMT-3 was determined to be 4.6 μg/ml. The peak serum concentration, though, for CMT-8 was determined to be 15 μg/ml. Liu et al., The Lipophilicity and Pharmacokdnetics of Different Chemically-Modified Tetracyclines (CMTs) In Vivo, Current Medicinal Chemistry, submitted for publication in September 1999. Clearly, administration of higher oral doses of CMT-3 and doxycycline would be needed to achieve serum concentrations similar to CMT-8.
FIGS. 2 and 3 provide a comparison of healthy untreated rats with untreated Type II ZDF/GMI diabetic rats and Type II ZDF/GMI diabetic rats treated with doxycycline and CMT-8.

[2] = rat; oral dose of 15 mg/kg; cited from earlier work

| SMILES | percentage of Type II ZDF/GMI diabetic rats that developed cataracts [1] | peak serum concentration [2] | cataract development in photographs compared with non-diabetic control rats (in words) ([1]; FIGS. 2 and 3, treated Type II ZDF/GMI diabetic rats) | reduction of the incidence of cataract development ([1]; Type II diabetic rats, at five months) | prevention of cataract development (in words) ([1]; ZDF/Gmi-fa Type II diabetic rats, at five months) |
| --- | --- | --- | --- | --- | --- |
| NC(=O)C1=C(O)C[C@@H]2C[C@@H]3Cc4cccc(O)c4C(=O)C3=C(O)[C@]2(O)C1=O [CMT-3, 6-demethyl-6-deoxy-4-dedimethylaminotetracycline] | approximately 70% | 4.6 µg/mL |  |  |  |
| CC1c2cccc(O)c2C(O)=C2C(=O)C3(O)C(O)=C(C(N)=O)C(=O)CC3C(O)C21 (stereo not drawn) [CMT-8, 5-hydroxy-6-α-deoxy-4-dedimethylaminotetracycline] | approximately 42% | 15 µg/mL | Cataracts do not appear to have developed | 37% | appeared to prevent the development of these cataracts |
| C[C@H]1c2cccc(O)c2C(=O)C2=C(O)[C@]3(O)C(=O)C(C(N)=O)=C(O)[C@@H](N(C)C)[C@@H]3[C@@H](O)[C@@H]21 [doxycycline, reference compound] | approximately 60% | 0.9 µg/mL |  |  |  |
